Biological target: TYK2 (Homo sapiens, UniProt P29597)
Assay: TYK2 protein degradation in MOLT-4 cells by immunoblotting
Type: cell-based
Parameters: endogenous in cells; host or cells: MOLT-4
Conditions: MOLT-4 cells, 24 hours
In short: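 MOLT-4 cells were exposed to compounds at 0.5 and 5 μM for 24 h, then lysed in RIPA buffer with protease and phosphatase inhibitors. TYK2 was detected by SDS-PAGE immunoblot with chemiluminescence, and band densitometry gave percent degradation.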

Sequence of TYK2 (P29597 whole entry): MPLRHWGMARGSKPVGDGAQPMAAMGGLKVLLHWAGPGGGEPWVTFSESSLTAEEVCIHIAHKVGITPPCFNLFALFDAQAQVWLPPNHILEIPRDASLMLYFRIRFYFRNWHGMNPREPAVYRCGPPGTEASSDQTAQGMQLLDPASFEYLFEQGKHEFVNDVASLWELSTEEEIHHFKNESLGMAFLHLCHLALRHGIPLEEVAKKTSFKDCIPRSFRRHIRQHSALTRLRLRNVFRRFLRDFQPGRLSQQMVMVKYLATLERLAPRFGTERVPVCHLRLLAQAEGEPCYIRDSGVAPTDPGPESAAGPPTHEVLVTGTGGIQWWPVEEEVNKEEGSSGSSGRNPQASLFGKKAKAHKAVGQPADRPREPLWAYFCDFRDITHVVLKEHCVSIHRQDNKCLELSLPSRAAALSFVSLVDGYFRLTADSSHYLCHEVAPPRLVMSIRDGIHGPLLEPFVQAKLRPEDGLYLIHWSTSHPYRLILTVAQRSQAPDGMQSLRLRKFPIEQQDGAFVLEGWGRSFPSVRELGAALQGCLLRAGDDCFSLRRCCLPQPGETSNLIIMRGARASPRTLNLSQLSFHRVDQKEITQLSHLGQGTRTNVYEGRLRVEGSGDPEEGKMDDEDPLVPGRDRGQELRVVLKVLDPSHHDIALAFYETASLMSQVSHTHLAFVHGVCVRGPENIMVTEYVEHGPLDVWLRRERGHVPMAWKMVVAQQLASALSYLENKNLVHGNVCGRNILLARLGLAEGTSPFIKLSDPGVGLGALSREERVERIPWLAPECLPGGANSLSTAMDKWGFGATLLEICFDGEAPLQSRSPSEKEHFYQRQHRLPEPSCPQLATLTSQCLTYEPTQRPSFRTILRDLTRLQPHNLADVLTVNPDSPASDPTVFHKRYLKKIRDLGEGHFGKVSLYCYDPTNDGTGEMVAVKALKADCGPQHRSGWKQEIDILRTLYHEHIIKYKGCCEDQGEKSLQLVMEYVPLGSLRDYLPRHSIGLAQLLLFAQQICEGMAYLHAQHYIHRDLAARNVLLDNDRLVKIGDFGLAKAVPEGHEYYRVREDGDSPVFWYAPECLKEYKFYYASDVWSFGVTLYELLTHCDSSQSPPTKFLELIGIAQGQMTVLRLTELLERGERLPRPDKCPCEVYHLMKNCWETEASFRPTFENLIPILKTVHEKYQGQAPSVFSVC

Compound | TYK2 Degradation (0.5 μM) | TYK2 Degradation (5 μM) | TYK2 Degradation (MOLT-4, 0.5 μM) | TYK2 Degradation (MOLT-4, 5 μM)
CNC(=O)c1nnc(NC(=O)C2CC2)cc1Nc1cccc(-c2ncn(CCNC(=O)CCOCCOCCC(=O)N[C@H](C(=O)N3C[C@H](O)C[C@H]3C(=O)NCc3ccc(-c4scnc4C)cc3)C(C)(C)C)n2)c1OC [CPD-069, 6-(Cyclopropanecarboxamido)-4-((3-(1-((S)-15-((2S,4R)-4-hydroxy-2-((4-(4-methylthiazol-5-yl)benzyl)carbamoyl)pyrrolidine-1-carbonyl)-16,16-dimethyl-4,13-dioxo-7,10-dioxa-3,14-diazaheptadecyl)-1H-1,2,4-triazol-3-yl)-2-methoxyphenyl)amino)-N-methylpyridazine-3-carboxamide] | ≤20% | ≤20% |  | 
CNC(=O)c1nnc(NC(=O)CNC(=O)CCCCCOc2cc(-c3scnc3C)ccc2CNC(=O)[C@@H]2C[C@@H](O)CN2C(=O)[C@@H](NC(=O)C2(F)CC2)C(C)(C)C)cc1Nc1cccc(-c2ncn(C)n2)c1OC [CPD-105, 6-(2-(6-(2-(((2S,4R)-1-((S)-2-(1-Fluorocyclopropane-1-carboxamido)-3,3-dimethylbutanoyl)-4-hydroxypyrrolidine-2-carboxamido)methyl)-5-(4-methylthiazol-5-yl)phenoxy)hexanamido)acetamido)-4-((2-methoxy-3-(1-methyl-1H-1,2,4-triazol-3-yl)phenyl)amino)-N-methylpyridazine-3-carboxamide] |  |  | C (C: ≤20% TYK2 degradation) | C (C: ≤20% TYK2 degradation)
CNC(=O)c1nnc(NC(=O)CNC(=O)CCCCNC(=O)C[C@H](NC(=O)[C@@H]2C[C@@H](O)CN2C(=O)[C@@H](NC(=O)C2(F)CC2)C(C)(C)C)c2ccc(-c3scnc3C)cc2)cc1Nc1cccc(-c2ncn(C)n2)c1OC [CPD-089, 6-(2-(5-((S)-3-((2S,4R)-1-((S)-2-(1-Fluorocyclopropane-1-carboxamido)-3,3-dimethylbutanoyl)-4-hydroxypyrrolidine-2-carboxamido)-3-(4-(4-methylthiazol-5-yl)phenyl)propanamido)pentanamido)acetamido)-4-((2-methoxy-3-(1-methyl-1H-1,2,4-triazol-3-yl)phenyl)amino)-N-methylpyridazine-3-carboxamide] |  |  | C (C: ≤20% TYK2 degradation) | C (C: ≤20% TYK2 degradation)
CNC(=O)c1nnc(NC(=O)CNC(=O)CCCCCCNC(=O)C[C@H](NC(=O)[C@@H]2C[C@@H](O)CN2C(=O)[C@@H](NC(=O)C2(F)CC2)C(C)(C)C)c2ccc(-c3scnc3C)cc2)cc1Nc1cccc(-c2ncn(C)n2)c1OC [CPD-091, 6-(2-(7-((S)-3-((2S,4R)-1-((S)-2-(1-Fluorocyclopropane-1-carboxamido)-3,3-dimethylbutanoyl)-4-hydroxypyrrolidine-2-carboxamido)-3-(4-(4-methylthiazol-5-yl)phenyl)propanamido)heptanamido)acetamido)-4-((2-methoxy-3-(1-methyl-1H-1,2,4-triazol-3-yl)phenyl)amino)-N-methylpyridazine-3-carboxamide] |  |  | C (C: ≤20% TYK2 degradation) | C (C: ≤20% TYK2 degradation)
CNC(=O)c1nnc(NC(=O)CNC(=O)CNc2ccc3c(c2)C(=O)N(C2CCC(=O)NC2=O)C3=O)cc1Nc1cccc(-c2ncn(C)n2)c1OC (stereo not drawn) [CPD-054, 6-(2-(2-((2-(2,6-Dioxopiperidin-3-yl)-1,3-dioxoisoindolin-5-yl)amino)acetamido)acetamido)-4-((2-methoxy-3-(1-methyl-1H-1,2,4-triazol-3-yl)phenyl)amino)-N-methylpyridazine-3-carboxamide] | ≤20% | ≤20% |  | 
CNC(=O)c1nnc(NC(=O)CNC(=O)CCOCCOCCOCCOCCOCCNc2cccc3c2C(=O)N(C2CCC(=O)NC2=O)C3=O)cc1Nc1cccc(-c2ncn(C)n2)c1OC (stereo not drawn) [CPD-053, 6-(1-((2-(2,6-Dioxopiperidin-3-yl)-1,3-dioxoisoindolin-4-yl)amino)-18-oxo-3,6,9,12,15-pentaoxa-19-azahenicosan-21-amido)-4-((2-methoxy-3-(1-methyl-1H-1,2,4-triazol-3-yl)phenyl)amino)-N-methylpyridazine-3-carboxamide] | ≤20% | ≤20% |  | 
CNC(=O)c1nnc(NC(=O)C2CC2)cc1Nc1cccc(-c2ncn(CCNC(=O)CCOCCOCCOCCOCCNc3ccc4c(c3)C(=O)N(C3CCC(=O)NC3=O)C4=O)n2)c1OC (stereo not drawn) [CPD-021, 6-(Cyclopropanecarboxamido)-4-((3-(1-(1-((2-(2,6-dioxopiperidin-3-yl)-1,3-dioxoisoindolin-5-yl)amino)-15-oxo-3,6,9,12-tetraoxa-16-azaoctadecan-18-yl)-1H-1,2,4-triazol-3-yl)-2-methoxyphenyl)amino)-N-methylpyridazine-3-carboxamide] | ≤20% | ≤20% |  | 
CNC(=O)c1nnc(NC(=O)C2CC2)cc1Nc1cccc(-c2ncn(CCNC(=O)CNc3cccc4c3C(=O)N(C3CCC(=O)NC3=O)C4=O)n2)c1OC (stereo not drawn) [CPD-001, 6-(Cyclopropanecarboxamido)-4-((3-(1-(2-(2-((2-(2,6-dioxopiperidin-3-yl)-1,3-dioxoisoindolin-4-yl)amino)acetamido)ethyl)-1H-1,2,4-triazol-3-yl)-2-methoxyphenyl)amino)-N-methylpyridazine-3-carboxamide] | ≤20% |  |  | 
CNC(=O)c1nnc(NC(=O)C2CC2)cc1Nc1cccc(-c2ncn(CCNC(=O)CCCCCNc3ccc4c(c3)C(=O)N(C3CCC(=O)NC3=O)C4=O)n2)c1OC (stereo not drawn) [CPD-023, 6-(Cyclopropanecarboxamido)-4-((3-(1-(2-(6-((2-(2,6-dioxopiperidin-3-yl)-1,3-dioxoisoindolin-5-yl)amino)hexanamido)ethyl)-1H-1,2,4-triazol-3-yl)-2-methoxyphenyl)amino)-N-methylpyridazine-3-carboxamide] | ≤20% | ≤20% |  | 
CNC(=O)c1nnc(NC(=O)CNC(=O)CCOCCOCCOCCOCCOCCC(=O)N[C@H](C(=O)N2C[C@H](O)C[C@H]2C(=O)NCc2ccc(-c3scnc3C)cc2)C(C)(C)C)cc1Nc1cccc(-c2ncn(C)n2)c1OC [CPD-033, N^1—((S)-1-((2S,4R)-4-Hydroxy-2-((4-(4-methylthiazol-5-yl)benzyl)carbamoyl)pyrrolidin-1-yl)-3,3-dimethyl-1-oxobutan-2-yl)-N^19-(2-((5-((2-methoxy-3-(1-methyl-1H-1,2,4-triazol-3-yl)phenyl)amino)-6-(methylcarbamoyl)pyridazin-3-yl)amino)-2-oxoethyl)-4,7,10,13,16-pentaoxanonadecanediamide] | ≤20% | ≤20% |  | 
CNC(=O)c1nnc(NC(=O)C2CC2)cc1Nc1cccc(-c2ncn(CCNC(=O)CCCCCCCNc3cccc4c3C(=O)N(C3CCC(=O)NC3=O)C4=O)n2)c1OC (stereo not drawn) [CPD-007, 6-(Cyclopropanecarboxamido)-4-((3-(1-(2-(8-((2-(2,6-dioxopiperidin-3-yl)-1,3-dioxoisoindolin-4-yl)amino)octanamido)ethyl)-1H-1,2,4-triazol-3-yl)-2-methoxyphenyl)amino)-N-methylpyridazine-3-carboxamide] | ≤20% |  |  | 
CNC(=O)c1nnc(NC(=O)CNC(=O)CCOCCOCCC(=O)N[C@H](C(=O)N2C[C@H](O)C[C@H]2C(=O)NCc2ccc(-c3scnc3C)cc2)C(C)(C)C)cc1Nc1cccc(-c2ncn(C)n2)c1OC [CPD-028, 6-((S)-15-((2S,4R)-4-Hydroxy-2-((4-(4-methylthiazol-5-yl)benzyl)carbamoyl)pyrrolidine-1-carbonyl)-16,16-dimethyl-4,13-dioxo-7,10-dioxa-3,14-diazaheptadecanamido)-4-((2-methoxy-3-(1-methyl-1H-1,2,4-triazol-3-yl)phenyl)amino)-N-methylpyridazine-3-carboxamide] | ≤20% | ≤20% |  | 
CNC(=O)c1nnc(NC(=O)C2CC2)cc1Nc1cccc(-c2ncn(CCNC(=O)CCOCCOCCOCCNc3ccc4c(c3)C(=O)N(C3CCC(=O)NC3=O)C4=O)n2)c1OC (stereo not drawn) [CPD-020, 6-(Cyclopropanecarboxamido)-4-((3-(1-(1-((2-(2,6-dioxopiperidin-3-yl)-1,3-dioxoisoindolin-5-yl)amino)-12-oxo-3,6,9-trioxa-13-azapentadecan-15-yl)-1H-1,2,4-triazol-3-yl)-2-methoxyphenyl)amino)-N-methylpyridazine-3-carboxamide] | ≤20% |  |  | 
CNC(=O)c1nnc(NC(=O)CNC(=O)CCNc2cccc3c2C(=O)N(C2CCC(=O)NC2=O)C3=O)cc1Nc1cccc(-c2ncn(C)n2)c1OC (stereo not drawn) [CPD-043, 6-(2-(3-((2-(2,6-Dioxopiperidin-3-yl)-1,3-dioxoisoindolin-4-yl)amino)propanamido)acetamido)-4-((2-methoxy-3-(1-methyl-1H-1,2,4-triazol-3-yl)phenyl)amino)-N-methylpyridazine-3-carboxamide] | ≤20% | ≤20% |  | 
CNC(=O)c1nnc(NC(=O)CNC(=O)CCOCCOCCOCCNc2ccc3c(c2)C(=O)N(C2CCC(=O)NC2=O)C3=O)cc1Nc1cccc(-c2ncn(C)n2)c1OC (stereo not drawn) [CPD-063, 6-(1-((2-(2,6-Dioxopiperidin-3-yl)-1,3-dioxoisoindolin-5-yl)amino)-12-oxo-3,6,9-trioxa-13-azapentadecan-15-amido)-4-((2-methoxy-3-(1-methyl-1H-1,2,4-triazol-3-yl)phenyl)amino)-N-methylpyridazine-3-carboxamide] | ≤20% | 30% |  | 
